In patent US20100279942A1, “METHODS FOR TREATING MOTOR NEURON DISEASE” (priority 2004, published 2010):

What was measured:
[1] = system: F11 cells transformed with SOD1 mutant (A4T-SOD1, G85R-SOD1, G93R-SOD1) genes; assay: Neuronal cell death test, Trypan blue exclusion assay, F11 cells transformed with SOD1 mutant genes; format: cell-based, rat/mouse hybrid cell; settings: for effect of kinase inhibitor on neuroprotective effect of ADNF: 100 nM ADNF, 10 nM wortmannin, 100 μM genistein, 50 μM PD98059, 20 μM SB203580, 1 μM AG490, 5 μM KN93, 10 μM HA1004, 72 hours
Procedure: F11 cell, the hybrid cell of rat embryonic day 13 (E13) primary cultured neuronal cell with mouse neuroblastoma NTG18 cell, was cultured in Ham's F-12 medium (Life Technologies, Gaithersburg, Md.) containing 18% FBS (Hyclone, Logan, Utah) and antibiotics as previously reported (Platika D, et al., 1985, Proc Natl Acad Sci USA 82: 3499-3503; Yamatsuji T, et al., 1996, Science 272: 1349-1352; Huang P, et al., 2000, Mol Hum Reprod 6: 1069-1078; and Niikura T, et al., 2001, J Neuroscience, 21: 1902-1910).
The F11 cells (7×10^4 cells/well, 6-well plate, 12- to 16-hour culture in Ham's F-12 (18% PBS) medium) were transformed with wild-type or SOD1 mutant (A4T, G85R, and G93R) genes by lipofection (0.5 μg of each SOD1 gene; 1 μl of LipofectAMINE; 2 μl of PLUS Reagent) under serum-free conditions for 3 hours and cultured for 2 hours in Ham's F-12 (18% PBS) medium. The medium was replaced by Ham's F-12 (10% PBS) in the presence or absence of ADNF. After 72 hours of the transformation, cell mortality was measured by Trypan blue exclusion assay as previously reported (Hashimoto Y, et al., 2001, J Neurosci 21: 9235-9245; and Hashimoto Y, et al, 2001, Proc Natl Acad Sci USA 98: 6336-6341). […]
Intracellular signaling by ADNF was examined. F11 cells were transformed with pEF-BOS or SOD1 mutant (A4T-SOD1, G85R-SOD1, or G93R-SOD1) cDNA and reacted with 10 nM wortmannin (PI3 kinase inhibitor), 100 μM genistein (tyrosine kinase inhibitor), 50 μM PD98059 (MEK inhibitor), 20 μM SB203580 (p38 MAPK inhibitor), 1 μM AG490 (JAK kinase inhibitor), 5 μM KN93 (calcium/calmodulin-dependent kinase inhibitor), or 10 μM HA1004 (protein kinase A inhibitor) in the presence or absence of 100 nM ADNF. After 72 hours of the transformation, cell mortality was measured by Trypan blue exclusion assay.
The effect of KN93 on the neuroprotective action of ADNF was examined. […] After 72 hours of the transformation, cell mortality was measured by Trypan blue exclusion assay. […]

SOD1 proteins = assay: Immunoblot analysis of SOD1 protein expression in transformed cells; format: cell-based, mouse and rat/mouse hybrid; settings: KN93 or KN92 treatment; F11 cells
Procedure: Immunoblot analysis was conducted according to the previous report (Hashimoto Y, et al., supra, p. 6336-6341). To examine the protein expression of wild-type or SOD1 mutant genes, lysates from the cells transfected with each SOD1 gene were subjected to SDS-PAGE (20 μg/lane). After electrical blotting to a PVDF membrane, the membrane was blocked by a typical method and reacted with an anti-SOD1 antibody and then with a 1:5000-diluted horseradish peroxidase-conjugated anti-mouse IgG antibody (Bio-Rad Lab. Hercules, Calif., USA). The antibody-reactive bands were detected by ECL (Amersham Pharmacia Biotech, Uppsala, Sweden).

[2] = system: F11 cells transformed with SOD1 mutant (A4T-SOD1, G85R-SOD1, G93R-SOD1) genes; assay: Neuronal cell death test, Trypan blue exclusion assay, F11 cells transformed with SOD1 mutant genes; format: cell-based, rat/mouse hybrid cell; settings: 10 pM ADNF8, 72 hours
[3] = system: neuronal cell death caused by amyloid β; settings: cited from earlier work
[4] = system: neuronal cell death induced by SOD1 mutant genes; settings: Hashimoto et al.; cited from earlier work

## N#C/C(=C/c1ccc(O)c(O)c1)C(=O)NCc1ccccc1 [AG490]
[1]
  effect of kinase inhibitor on neuroprotective effect of ADNF: not affected

## NC(N)=NCCNS(=O)(=O)c1cccc2cnccc12 [HA1004]
[1]
  effect of kinase inhibitor on neuroprotective effect of ADNF: not affected

## COc1ccc(S(=O)(=O)Nc2ccccc2CN(C)C/C=C/c2ccc(Cl)cc2)cc1 [KN92]
[1]; 5 μM KN92, 100 fM ADNF
  influence on ADNF activity: did not influence ADNF activity
SOD1 proteins
  protein expression of SOD1 mutant detected by immunoblot: not affected

## COc1ccc(S(=O)(=O)N(CCO)c2ccccc2CN(C)C/C=C/c2ccc(Cl)cc2)cc1 [KN93]
[1]; 50 nM KN93, 100 fM ADNF
  inhibition of neuroprotective action of ADNF: partially inhibited
[1]
  effect of kinase inhibitor on neuroprotective effect of ADNF: inhibited
[1]; 1 μM KN93, 100 fM ADNF
  inhibition of neuroprotective action of ADNF: almost completely inhibited
[1]; KN93 at any of the concentrations (10 nM to 5 μM)
  influence on cell mortality at the control level: no influence
SOD1 proteins
  protein expression of SOD1 mutant detected by immunoblot: not affected

## COc1cccc(-c2cc(=O)c3ccccc3o2)c1N [PD98059]
[1]
  effect of kinase inhibitor on neuroprotective effect of ADNF: not affected

## C[S+]([O-])c1ccc(-c2nc(-c3ccncc3)c(-c3ccc(F)cc3)[nH]2)cc1 (stereo not shown) [SB203580]
[1]
  effect of kinase inhibitor on neuroprotective effect of ADNF: not affected

## O=c1c(-c2ccc(O)cc2)coc2cc(O)cc(O)c12 [genistein]
[1]
  effect of kinase inhibitor on neuroprotective effect of ADNF: inhibited

## ALLRSIPA [ADNF8, ADNF which lost one N-terminal amino acid residue]
[1]; inhibition of neuronal cell death caused by SOD1 mutant genes
  effectiveness relative to ADNF (fold less): 100 fold
[2]
  inhibition of cell death caused by G93R-SOD1: completely inhibited cell death
[3]; Brenneman et al. 1998
  effect against neuronal cell death caused by amyloid β or TTX: totally ineffective

## IPALDSLKPANEDQKIGIEI [IPAL peptide]
[1]; 10 μM IPAL peptide
  influence on cell death caused by SOD1 mutant genes: did not influence the cell death caused by the SOD1 mutant genes
[1]; 10 μM IPAL peptide itself, pEF-BOS
  influence on cell death at the control level: did not influence the cell death at the control level
[1]; 10 μM IPAL peptide, 100 fM ADNF, 72 hours
  effect on inhibitory activity of ADNF against cell death caused by SOD1 mutant genes: did not inhibit the inhibitory activity of ADNF
[3]; Zamostiano et al. 1999
  effect on protective effect of ADNF on cell death induced by amyloid β: inhibit the protective effect of ADNF

## S14G Humanin (MAPRGFSCLLLLTGEIDLPVKRRA; Humanin; UniProt Q8IVG9 1-24, looked up, variant S14G) [HNG, comparison peptide reported to prevent Alzheimer's disease-associated neuronal cell death]
[1]; 10 nM HNG, A4T-, G85R-, G93R-SOD1, 72 hours
  cell mortality induced by SOD1 mutant genes: could not reduce the cell death induced by the SOD1 mutant genes
[3]; Hashimoto et al.
  neuronal cell death caused by some Alzheimer's disease-associated disorders: prevent neuronal cell death
[4]
  neuronal cell death induced by SOD1 mutant genes: fail to prevent neuronal cell death
